We go through seven compounds from patent US6531143B1, “α-hydroxy fatty acid derivatives and external compositions containing the same” (Kanebo, Limited, priority 1998, dated 2003).

Read-outs that look alike come from different tables or passages of the source.

Data set [1] relates to skin (facies medialis brachii of 20 subjects). Nature of the data set: Safety test: irritation to the skin, 24 h patch test. The note with it: 50 wt % in olive oil, 1 ml on adhesive plaster, 24 hours on facies medialis brachii, evaluated 24 hours after removing the patch, subjects with clear erythema.
Procedure: (§1) As the safety test, irritation to the skin was examined by the following method. Each sample of the alpha-hydroxy fatty acid derivatives obtained in the Examples prepared by dissolving in olive oil in the concentration of 50 wt % and an adhesive plaster for patch test was impregnated with 1 ml of the sample. The adhesive plaster was put on the facies medialis brachii of 20 subjects for 24 hours. Irritation was evaluated 24 hours after removing the patch.
Data set [2] shares this test system. The note with it: in vivo.
Procedure: as §1

As for `CCCCCCCCCCCCCCCCOC(=O)C(CCCCCCCCCCCCCC)OC(C)=O` (stereo not shown) [2-acetyloxypalmitic acid palmityl ester], the melting point (in general, the temperature, or range, at which the solid turns liquid) amounted to 35.1 °C. In data set [1], this compound displayed a Positive percentage of 0%.
In turn, `CCCCCCCCCCCCOC(=O)C(CCCCCCCCCC)OC(=O)CC(C)C` (stereo not shown) [2-isovaleryloxylauric acid lauryl ester] displayed a Positive percentage in data set [1] of 0%.
In data set [1], `CCCCCCCCCCCCCCCCC(OC(C)=O)C(=O)OCCCCCCCCCCCCCCCCCC(C)C` (stereo not shown) [2-acetyloxystearic acid-(18)-methylnonadecanyl ester] returned a Positive percentage of 0%.
On to `CCCCCCCCCCCCCCCCOC(=O)C(CCCCCCCCCCCCCC)OC(=O)CCCCCCCCCCCCCCC` (stereo not shown) [2-palmitoyloxypalmitic acid palmityl ester], for which the melting point was 52.5 °C. The same compound came in with a Positive percentage in data set [1] of 0%.
`CCCCCCCCCCCCC(OC(=O)C(C)C)C(=O)OCCCCCCCCCCCCCCCCCC(C)CC` (stereo not shown) [2-isobutyryloxymyristic acid-(18)-methylicosanyl ester]: the Positive percentage in data set [1] is 0%.
Regarding “2-long-chain branched fatty acid (12-31) oxypalmitic acid palmityl ester”, in data set [2], the Positive percentage came to 0%.
`CCCCCCCCCCCCCCCCOC(=O)C(CCCCCCCCCCCCCC)OC(=O)C(C)C` (stereo not shown) [2-isobutyryloxypalmitic acid palmityl ester]: the melting point came out at 28.3 °C. Further, the Positive percentage in data set [1] is given as 0%.
